In DBAASP:
Converted amounts (≈) assume the structure as drawn. Each block holds one compound with its values, some of them ahead of it.

Columns and labels:
Test in all cases: ≥ marks a high value that may be exact or a test limit, other limits are often not marked, values filed in µg/mL are converted to µM
[1] = system: Erwinia amylovora PMV 6076
[2] = system: Pseudomonas syringae pv. syringae EPS 94
[3] = system: Xanthomonas campestris pv. Vesicatoria 2133-2
[4] = system: Acinetobacter baumannii CICC 22934
Bacillus cereus AS1.126 = system: Bacillus cereus AS1.126
[5] = system: Enterobacter cloacae CGMCC 1.58
[6] = system: Enterococcus faecalis CGMCC 1.595
[7] = system: Enterococcus faecium CGMCC 1.2334
Escherichia coli AS1.349 = system: Escherichia coli AS1.349
[8] = system: Klebsiella aerogenes CGMCC 1.876
[9] = system: Klebsiella pneumoniae subsp. pneumoniae CGMCC 1.176
[10] = system: Lactococcus lactis AS1.1690
[11] = system: Proteus mirabilis CICC 22931
[12] = system: Pseudomonas aeruginosa CGMCC 1.860
[13] = system: Staphylococcus aureus AS1.72
Bacillus subtilis PS832 = system: Bacillus subtilis PS832
Escherichia coli DL7 = system: Escherichia coli DL7
[14] = system: Klebsiella aerogenes ATCC 13048
[15] = system: Staphylococcus epidermidis ATCC 12228
[16] = system: Acinetobacter baumannii CCARM 12005
[17] = system: Acinetobacter baumannii CCARM 12035
[18] = system: Acinetobacter baumannii CCARM 12036
[19] = system: Acinetobacter baumannii CCARM 12037
[20] = system: Bacillus subtilis KCTC 1021
[21] = system: Bacillus subtilis KCTC 1022
[22] = system: Bacillus subtilis KCTC 3068
[23] = system: Escherichia coli CCARM 1229
[24] = system: Escherichia coli CCARM 1238
[25] = system: Escherichia coli KCTC 1682
[26] = system: Escherichia coli KCTC 2571
[27] = system: Escherichia coli KCTC 2593
[28] = system: Pseudomonas aeruginosa CCARM 2002
[29] = system: Pseudomonas aeruginosa CCARM 2003
[30] = system: Pseudomonas aeruginosa CCARM 2095
[31] = system: Pseudomonas aeruginosa CCARM 2163
[32] = system: Pseudomonas aeruginosa KCTC 1637
[33] = system: Pseudomonas aeruginosa KCTC 2004
[34] = system: Pseudomonas aeruginosa KCTC 2513
[35] = system: Salmonella typhimurium CCARM 8003
[36] = system: Salmonella typhimurium CCARM 8007
[37] = system: Salmonella typhimurium CCARM 8009
[38] = system: Salmonella typhimurium KCTC 1926
[39] = system: Staphylococcus aureus CCARM 3089
[40] = system: Staphylococcus aureus CCARM 3090
[41] = system: Staphylococcus aureus CCARM 3108
[42] = system: Staphylococcus aureus CCARM 3114
[43] = system: Staphylococcus aureus CCARM 3126
[44] = system: Staphylococcus aureus KCTC 1621
[45] = system: Staphylococcus aureus KCTC 1916
[46] = system: Staphylococcus aureus KCTC 3881
[47] = system: Staphylococcus epidermidis KCTC 1917

MIC [1]: 3.54 µM (≈ 7.9 µg/mL)
MIC [2]: 3.54 µM (≈ 7.9 µg/mL)
MIC [3]: 3.54 µM (≈ 7.9 µg/mL)
SMILES: CC[C@H](C)[C@H](NC(=O)[C@H](CCCCN)NC(=O)[C@H](CCCCN)NC(=O)[C@H](Cc1ccccc1)NC(=O)[C@H](CC(C)C)NC(=O)[C@H](CCCCN)NC(=O)[C@@H](N)CCCCN)C(=O)N[C@@H](CC(C)C)C(=O)N[C@@H](CCCCN)C(=O)N[C@@H](Cc1ccc(O)cc1)C(=O)N[C@@H](CC(C)C)C(=O)N[C@@H](CCCCN)C(=O)N[C@@H](Cc1ccccc1)C(=O)N[C@@H](CC(C)C)C(=O)N[C@@H](Cc1cnc[nH]1)C(=O)N[C@@H](CO)C(=O)N[C@@H](C)C(=O)N[C@@H](CCCCN)C(=O)O [KKLFKKILKYLKFLHSAK]

MIC [4]: ≥ 100 µM
MIC (Bacillus cereus AS1.126): 2.34 µM (≈ 5.31 µg/mL)
MIC [5]: ≥ 100 µM
MIC [6]: 4.69 µM (≈ 10.6 µg/mL)
MIC [7]: 4.69 µM (≈ 10.6 µg/mL)
MIC (Escherichia coli AS1.349): ≥ 100 µM
MIC [8]: ≥ 100 µM
MIC [9]: ≥ 100 µM
MIC [10]: 4.69 µM (≈ 10.6 µg/mL)
MIC [11]: ≥ 100 µM
MIC [12]: ≥ 100 µM
MIC [13]: 3.13 µM (≈ 7.1 µg/mL)
SMILES: CC(C)C[C@H](NC(=O)[C@H](Cc1cnc[nH]1)NC(=O)[C@H](CCCN=C(N)N)NC(=O)CNC(=O)[C@@H](NC(=O)[C@H](C)NC(=O)[C@@H](N)CO)C(C)C)C(=O)N[C@@H](CCCN=C(N)N)C(=O)N[C@@H](CCCN=C(N)N)C(=O)N[C@@H](Cc1ccccc1)C(=O)N[C@@H](CC(C)C)C(=O)N[C@@H](CC(C)C)C(=O)N[C@@H](CCCN=C(N)N)C(=O)N[C@@H](CCCCN)C(=O)N[C@@H](Cc1cnc[nH]1)C(=O)N[C@@H](CCCN=C(N)N)C(=O)N[C@@H](CCCCN)C(=O)N[C@@H](Cc1cnc[nH]1)C(=O)O [SAVGRHLRRFLLRKHRKH]

MIC (Bacillus subtilis PS832): 0.5 µM (≈ 0.751 µg/mL)
MIC (Escherichia coli DL7): 2 µM (≈ 3.01 µg/mL)
MIC [14]: ≥ 32 µM
MIC [15]: 2 µM (≈ 3.01 µg/mL)
SMILES: CC[C@H](C)[C@H](NC(=O)[C@H](CCCN=C(N)N)NC(=O)[C@H](CCCCN)NC(=O)[C@H](CC(C)C)NC(=O)[C@H](CC(C)C)NC(=O)CNC(=O)[C@H](Cc1cnc[nH]1)NC(=O)[C@@H](NC(=O)[C@@H](N)C(C)C)[C@@H](C)CC)C(=O)N[C@@H](CCCCN)C(=O)N[C@H](C(=O)N[C@@H](CC(C)C)C(=O)N[C@@H](CC(C)C)C(N)=O)[C@@H](C)O [VIHGLLKRIKTLL]

MIC [16]: 4 µM (≈ 10.3 µg/mL)
MIC [17]: 4 µM (≈ 10.3 µg/mL)
MIC [18]: 4 µM (≈ 10.3 µg/mL)
MIC [19]: 4 µM (≈ 10.3 µg/mL)
MIC [20]: 8 µM (≈ 20.7 µg/mL)
MIC [21]: 4 µM (≈ 10.3 µg/mL)
MIC [22]: 4 µM (≈ 10.3 µg/mL)
MIC [23]: 8 µM (≈ 20.7 µg/mL)
MIC [24]: 8 µM (≈ 20.7 µg/mL)
MIC [25]: 2 µM (≈ 5.16 µg/mL)
MIC [26]: 4 µM (≈ 10.3 µg/mL)
MIC [27]: 4 µM (≈ 10.3 µg/mL)
MIC [28]: 4 µM (≈ 10.3 µg/mL)
MIC [29]: 4 µM (≈ 10.3 µg/mL)
MIC [30]: 2 µM (≈ 5.16 µg/mL)
MIC [31]: 2 µM (≈ 5.16 µg/mL)
MIC [32]: 4 µM (≈ 10.3 µg/mL)
MIC [33]: 8 µM (≈ 20.7 µg/mL)
MIC [34]: 8 µM (≈ 20.7 µg/mL)
MIC [35]: 16 µM (≈ 41.3 µg/mL)
MIC [36]: 8 µM (≈ 20.7 µg/mL)
MIC [37]: 8 µM (≈ 20.7 µg/mL)
MIC [38]: 8 µM (≈ 20.7 µg/mL)
MIC [39]: 8 µM (≈ 20.7 µg/mL)
MIC [40]: 8 µM (≈ 20.7 µg/mL)
MIC [41]: 8 µM (≈ 20.7 µg/mL)
MIC [42]: 8 µM (≈ 20.7 µg/mL)
MIC [43]: 8 µM (≈ 20.7 µg/mL)
MIC [44]: 4 µM (≈ 10.3 µg/mL)
MIC [45]: 4 µM (≈ 10.3 µg/mL)
MIC [46]: 4 µM (≈ 10.3 µg/mL)
MIC [47]: 4 µM (≈ 10.3 µg/mL)
SMILES: CC[C@H](C)[C@H](NC(=O)CNC(=O)[C@H](CCCN=C(N)N)NC(=O)[C@H](CCCCN)NC(=O)[C@@H](NC(=O)[C@H](Cc1cnc[nH]1)NC(=O)[C@H](Cc1cnc[nH]1)NC(=O)[C@H](Cc1ccccc1)NC(=O)[C@@H](N)Cc1ccccc1)[C@@H](C)CC)C(=O)N[C@@H](CCCCN)C(=O)N[C@@H](Cc1cnc[nH]1)C(=O)N[C@H](C(=O)NCC(=O)N[C@@H](CCCCN)C(=O)N[C@H](C(=O)N[C@H](C(=O)N[C@@H](Cc1cnc[nH]1)C(=O)N[C@@H](CCCN=C(N)N)C(=O)N[C@@H](CC(C)C)C(=O)N[C@H](C(=O)N[C@H](C(=O)NCC(=O)O)[C@@H](C)O)C(C)C)[C@@H](C)CC)[C@@H](C)O)C(C)C [FFHHIKRGIKHVGKTIHRLVTG]
